The record followed here is PubChem BioAssay AID2165 (The Scripps Research Institute Molecular Screening Center, 2009).

SMILES strings stand for the structures. Calls of active or inactive are those of the source. Rule as the data show it: active = IC50 below about 9 µM; inactive = the rest.

This experiment has as its target Tyrosine-protein kinase JAK2 (Homo sapiens) (UniProt O60674). In words: JAK2V617F project follow-up: kinase, reporter, cytotoxicity – HEL and Ba/F3 cells, late-stage follow-up (AID 2165). The settings on record: JAK2V617F panel: kinase, IRF1 reporter.

What is called IC50 is the midpoint of a concentration-inhibition curve.

Sequence of Tyrosine-protein kinase JAK2 (Homo sapiens) (O60674 whole entry, looked up, change not shown): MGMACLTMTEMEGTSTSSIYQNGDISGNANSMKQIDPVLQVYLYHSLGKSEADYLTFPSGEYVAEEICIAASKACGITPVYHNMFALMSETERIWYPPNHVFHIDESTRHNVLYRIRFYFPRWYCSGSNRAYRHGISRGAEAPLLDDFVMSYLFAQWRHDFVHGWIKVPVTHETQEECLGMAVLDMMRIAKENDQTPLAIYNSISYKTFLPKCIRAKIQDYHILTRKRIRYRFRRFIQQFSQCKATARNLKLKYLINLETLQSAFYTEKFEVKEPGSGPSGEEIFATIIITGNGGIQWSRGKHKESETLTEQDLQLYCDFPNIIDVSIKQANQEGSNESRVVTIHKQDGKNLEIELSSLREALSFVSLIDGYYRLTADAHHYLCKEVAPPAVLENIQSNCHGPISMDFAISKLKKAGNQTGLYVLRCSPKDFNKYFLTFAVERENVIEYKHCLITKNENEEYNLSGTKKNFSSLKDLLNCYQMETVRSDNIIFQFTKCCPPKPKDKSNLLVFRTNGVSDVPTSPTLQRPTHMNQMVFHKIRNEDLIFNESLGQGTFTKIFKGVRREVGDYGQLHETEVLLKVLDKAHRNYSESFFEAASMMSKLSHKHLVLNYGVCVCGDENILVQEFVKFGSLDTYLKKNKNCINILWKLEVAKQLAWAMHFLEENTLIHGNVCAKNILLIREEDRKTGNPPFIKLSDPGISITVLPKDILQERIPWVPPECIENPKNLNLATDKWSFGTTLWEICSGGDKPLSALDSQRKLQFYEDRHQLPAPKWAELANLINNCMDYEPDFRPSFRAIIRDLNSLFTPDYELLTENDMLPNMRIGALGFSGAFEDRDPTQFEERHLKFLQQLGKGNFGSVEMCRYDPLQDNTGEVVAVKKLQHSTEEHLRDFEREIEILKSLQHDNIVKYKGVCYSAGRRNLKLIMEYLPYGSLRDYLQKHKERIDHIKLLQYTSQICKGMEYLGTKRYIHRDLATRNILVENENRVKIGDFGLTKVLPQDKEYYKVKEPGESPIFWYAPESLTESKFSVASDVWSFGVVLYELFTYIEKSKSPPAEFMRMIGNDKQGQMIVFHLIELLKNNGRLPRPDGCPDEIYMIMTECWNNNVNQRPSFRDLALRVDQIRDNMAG

In the case of `[O-][N+]1=c2ccc(Nc3ccccc3)cc2=NC12CCCCC2`, the IC50 reads like this: (Ba/F3, irf1 reporter) 5.15 µM; (HEL, irf1 reporter) 7.02 µM.
With `Cc1cccc(OCC(=O)Nc2cc(C)c(C)cc2O)c1`, the IC50 (JAK2V617F) is > 40 µM (inactive).
For `Cc1cccc(OCC(=O)Nc2ccc(O)cc2)c1`, the IC50 (JAK2V617F) was > 40 µM (inactive).
Consider `CCCCCCN(C(=O)CCl)c1ccccc1`, for which the IC50 was 3.62 µM (Ba/F3, irf1 reporter) and 8.71 µM (HEL, irf1 reporter).
The like results for `O=S(=O)(c1cnc(Cl)c(Br)c1)N1CCc2ccccc21` were, in that order, 6.61 µM and > 40 µM (inactive).
Regarding `Cc1ccc(O)c(NC(=O)COc2ccc(F)cc2)c1`, for the setting “JAK2V617F”, the IC50 was 21.8 µM.
As for `COCCOc1cc2nc[nH]c(=O)c2cc1OCCOC`, the IC50 (HEL, irf1 reporter) was > 40 µM (inactive) and the IC50 (JAK2V617F) is > 40 µM (inactive).
In the case of `CC(C)(C)OC(=O)N[C@@H](Cc1ccccc1)c1nnc(S(=O)(=O)Cc2cccc(F)c2)o1`, the IC50 is 0.904 µM (Ba/F3, irf1 reporter) and 26.3 µM (HEL, irf1 reporter).
On to `CCN(CC)S(=O)(=O)c1cccc(-n2c(O)c(C=Nc3ccccc3C(=O)O)c3ccccc3c2=O)c1`, for which the IC50 is > 40 µM (inactive) (Ba/F3, irf1 reporter) and > 40 µM (inactive) (HEL, irf1 reporter).
On to `Clc1ccc(-n2nnnc2Sc2ncnc3sccc23)cc1`, for which the IC50 was 1.19 µM (Ba/F3, irf1 reporter) and 23.3 µM (HEL, irf1 reporter).
For `Cc1ccc(O)c(NC(=O)COc2ccc(C3CCCCC3)cc2)c1`, the IC50 (JAK2V617F) is > 40 µM (inactive).
`Cc1nc([N+](=O)[O-])c(Br)n1Cc1ccc(Cl)c(Cl)c1`: the IC50 is 2.62 µM (Ba/F3, irf1 reporter) and 4.58 µM (HEL, irf1 reporter).
`N#CC(C#N)=Cc1ccc(O)c(O)c1`: the IC50 by setting is: (Ba/F3, irf1 reporter) 0.24 µM; (HEL, irf1 reporter) > 40 µM (inactive); (JAK2V617F) > 40 µM (inactive).
Take `Cc1cccc(OCC(=O)Nc2cccc(O)c2)c1`: the IC50 is, setting by setting: (HEL, irf1 reporter) > 40 µM (inactive); (JAK2V617F) > 40 µM (inactive).
In the case of `COC1(OC)C(/C=C/c2ccc(Cl)cc2)C(C#N)(C#N)C1(OC)OC` (stereo not given), the IC50 (Ba/F3, irf1 reporter) was 1.33 µM and the IC50 (HEL, irf1 reporter) is 6.57 µM.
Take `COc1cc(/C=C(\C#N)C(N)=O)cc(CSc2nc3ccccc3s2)c1O`: the IC50 reads like this: (Ba/F3, irf1 reporter) 3.35 µM; (HEL, irf1 reporter) 4.15 µM; (JAK2V617F) 6.78 µM.
The like results for `COc1cc2ncnc(Nc3ccc(O)c(Br)c3)c2cc1OC` were, in that order, 2.18 µM, 2.98 µM and 30.3 µM.
As for `CCC(C)Nc1ncnc2cc(OC)c(OC)cc12` (stereo not given), the IC50 is, setting by setting: (HEL, irf1 reporter) > 40 µM (inactive); (JAK2V617F) 1.79 µM.
Take `C/C(=C\c1ccccc1F)C(=O)c1c(C)cc(C)[nH]c1=O`: the IC50 was > 40 µM (inactive) (Ba/F3, irf1 reporter); 3.24 µM (HEL, irf1 reporter); > 40 µM (inactive) (JAK2V617F).
As for `COc1cc(/C=C2\COC/C(=C\c3ccc(O)c(OC)c3)C2=O)ccc1O`, the IC50 was 1.99 µM (Ba/F3, irf1 reporter) and 7.86 µM (HEL, irf1 reporter).
As to `COc1cc2ncnc(N[C@H](C)c3ccccc3)c2cc1OC`, the IC50 by setting is: (HEL, irf1 reporter) 13.1 µM; (JAK2V617F) 3.18 µM.
As for `O=C(NCCc1cccnc1)C1CCC(=O)N(CCc2cccc(F)c2)C1` (stereo not given), the IC50 reads like this: (HEL, irf1 reporter) > 40 µM (inactive); (JAK2V617F) > 40 µM (inactive).
With `Cc1cc(C)c(C(=O)/C=C/c2ccccc2F)c(=O)[nH]1`, the IC50 (Ba/F3, irf1 reporter) was 24 µM; the IC50 (HEL, irf1 reporter) was 1.17 µM; the IC50 (JAK2V617F) is 0.71 µM.
Take `COC(=O)/C=C/c1ccc(OC(=O)OC)c(OC(=O)OC)c1`: the IC50 reads like this: (Ba/F3, irf1 reporter) 12.6 µM; (HEL, irf1 reporter) 27.7 µM.
The like results for `O=C(/C(=N/N=C/c1ccc(O)c(O)c1)c1ccccc1)c1ccccc1` were, in that order, 6.61 µM and 9.46 µM.
Take `Cc1ccc(Cn2ccsc2=NC(=O)CCl)cc1`: the IC50 runs as follows: (Ba/F3, irf1 reporter) 6.74 µM; (HEL, irf1 reporter) 3.11 µM.
On to `COc1ccc2nc(C)cc(Sc3nc4ccccc4s3)c2c1`, for which the IC50 reads like this: (Ba/F3, irf1 reporter) 2.98 µM; (HEL, irf1 reporter) 11 µM.
In the case of `O=C(/C=C/c1ccc(O)c(O)c1)c1ccc(S(=O)(=O)N2CCCCCC2)cc1`, the IC50 is, setting by setting: (Ba/F3, irf1 reporter) 2.33 µM; (HEL, irf1 reporter) > 40 µM (inactive).
As to `Cc1[nH]c(=O)c(C(=O)/C=C/c2ccccc2)c2c1CCCC2`, the IC50 reads like this: (Ba/F3, irf1 reporter) > 40 µM (inactive); (HEL, irf1 reporter) 2.03 µM; (JAK2V617F) 1.15 µM.
As to `Cc1ccc(O)c(NC(=O)COc2ccc(I)cc2)c1`, the IC50 (JAK2V617F) was 0.0268 µM.
For the compound `O=C(C=Cc1ccccc1F)c1c(-c2ccccc2)c2ccccc2[nH]c1=O`, the IC50 (Ba/F3, irf1 reporter) is 0.39 µM; the IC50 (HEL, irf1 reporter) was 0.39 µM; the IC50 (JAK2V617F) was 0.39 µM.
With `CCS(=O)(=O)c1ccc(O)c(NC(=O)COc2cccc(C)c2)c1`, the IC50 (JAK2V617F) was > 40 µM (inactive).
Turning to `COc1ccccc1C(C[N+](=O)[O-])c1c(N)n(C)c(=O)n(C)c1=O` (stereo not given), the IC50 runs as follows: (Ba/F3, irf1 reporter) 6.82 µM; (HEL, irf1 reporter) 17 µM.
Turning to `O=S(=O)(c1cccs1)N1CCN(c2ccc(O)cc2)CC1`, the IC50 (Ba/F3, irf1 reporter) was 7.02 µM and the IC50 (HEL, irf1 reporter) was 20.9 µM.
As for `COC(=O)COc1cccc2c(=O)n(CC(=O)NCc3ccc(F)cc3)ccc12`, the IC50 (Ba/F3, irf1 reporter) was 16.3 µM and the IC50 (HEL, irf1 reporter) is 7.33 µM.
For the compound `C=CCNc1ncnc2cc(OC)c(OC)cc12`, the IC50 (HEL, irf1 reporter) is > 40 µM (inactive) and the IC50 (JAK2V617F) is > 40 µM (inactive).
Turning to `COc1cc(C=C(C#N)C(N)=O)cc(CSc2ccccc2)c1O`, the IC50 was > 40 µM (inactive) (Ba/F3, irf1 reporter); > 40 µM (inactive) (HEL, irf1 reporter); > 40 µM (inactive) (JAK2V617F).
`COCCOc1cc2ncnc(Nc3cccc(C#Cc4ccc(O)cc4)c3)c2cc1OCCOC`: the IC50 was 0.0948 µM (HEL, irf1 reporter) and 2.74 µM (JAK2V617F).
For `COc1cc2ncnc(Nc3ccc(F)c(F)c3)c2cc1OC`, the IC50 reads like this: (HEL, irf1 reporter) > 40 µM (inactive); (JAK2V617F) > 40 µM (inactive).
As to `COc1cc2c(cc1OC)-c1cc(N3CCCc4ccccc43)nc(=O)n1CC2`, the IC50 is, setting by setting: (Ba/F3, irf1 reporter) > 40 µM (inactive); (HEL, irf1 reporter) > 40 µM (inactive).
With `O=C(Oc1cccc2c(O)cccc12)c1ccccc1`, the IC50 (Ba/F3, irf1 reporter) is 8.18 µM and the IC50 (HEL, irf1 reporter) was > 40 µM (inactive).
Consider `Cc1ccc(O)c(NC(=O)COc2ccc(C)c(C)c2)c1`, for which the IC50 (JAK2V617F) was > 40 µM (inactive).
As to `Cc1cc2ncc(-c3ccc(O)c(O)c3)nc2cc1C`, the IC50 is, setting by setting: (Ba/F3, irf1 reporter) 0.104 µM; (HEL, irf1 reporter) 3.19 µM; (JAK2V617F) 0.84 µM.
For the compound `Cc1[nH]c(=O)c(C(=O)C=Cc2ccc(Cl)cc2)c2c1CCCC2`, the IC50 was 1.07 µM (Ba/F3, irf1 reporter); 0.96 µM (HEL, irf1 reporter); 2.64 µM (JAK2V617F).
For `Cc1nn2c(NCc3ccccn3)c3c(nc2c1-c1ccccc1)CCC3`, the IC50 is 10.7 µM (Ba/F3, irf1 reporter) and 9.49 µM (HEL, irf1 reporter).
For the compound `Nc1nc(N)c2nc(-c3ccccc3)c(N)nc2n1`, the IC50 was > 40 µM (inactive) (Ba/F3, irf1 reporter) and > 40 µM (inactive) (HEL, irf1 reporter).
`Cc1cccc(NC(=O)COc2cccc(C)c2)c1`: the IC50 (JAK2V617F) is > 40 µM (inactive).
With `Oc1ccccc1OCCOc1ccccc1OCCOc1ccccc1O`, the IC50 is, setting by setting: (Ba/F3, irf1 reporter) 6.74 µM; (HEL, irf1 reporter) 15.9 µM.
With `O=C(OCn1ncc(Cl)c(Cl)c1=O)c1ccccc1Cl`, the IC50 by setting is: (Ba/F3, irf1 reporter) 4.03 µM; (HEL, irf1 reporter) 4.45 µM.
Consider `Clc1cccc(Nc2ncnc3ccccc23)c1`, for which the IC50 by setting is: (HEL, irf1 reporter) > 40 µM (inactive); (JAK2V617F) > 40 µM (inactive).
For the compound `COc1cccc(Nc2ncnc3cc(OC)c(OC)cc23)c1`, the IC50 runs as follows: (HEL, irf1 reporter) 3.54 µM; (JAK2V617F) > 40 µM (inactive).
As for `COc1ccc(-c2cnc3c(c2)CCC3(C#N)C#N)cc1`, the IC50 is 14.4 µM (Ba/F3, irf1 reporter) and 10.4 µM (HEL, irf1 reporter).
As to `CC1CCN(CCCNC(=O)c2cc3c(Cl)nc4ccccc4c3s2)CC1`, the IC50 is 9.98 µM (Ba/F3, irf1 reporter) and > 40 µM (inactive) (HEL, irf1 reporter).
With `COc1ccccc1OCC(=O)Nc1cc(C)ccc1O`, the IC50 (JAK2V617F) was 0.0392 µM.
As to `CCC(C)c1ccc(OCC(=O)Nc2cc(C)ccc2O)cc1` (stereo not given), the IC50 (JAK2V617F) was 33.2 µM.
`Cc1ccc(NC(=O)C(=Cc2ccc(C(=O)O)cc2)C(=O)Nc2ccc(C)cc2C)c(C)c1`: the IC50 is 2.9 µM (Ba/F3, irf1 reporter) and 2.8 µM (HEL, irf1 reporter).
`COc1cccc(F)c1C(C[N+](=O)[O-])c1c(N)n(C)c(=O)n(C)c1=O` (stereo not given): the IC50 (Ba/F3, irf1 reporter) is 5.77 µM and the IC50 (HEL, irf1 reporter) was 9.37 µM.
The like results for `CCCOc1ccc(C(=O)C(CN2CCOCC2)c2ccccc2)cc1` (stereo not given) were, in that order, > 40 µM (inactive) and 11.4 µM.
The like results for `O=C(CCl)N=c1sccn1Cc1ccc(Cl)cc1Cl` were, in that order, 6.08 µM and 2.22 µM.
With `Oc1ccc(Cl)cc1N=Cc1sc2ccccc2c1Cl`, the IC50 runs as follows: (Ba/F3, irf1 reporter) 3.42 µM; (HEL, irf1 reporter) 5.53 µM.
